Measurements: patent US20230172206A1 (BASF SE, priority 2020, published 2023)

Columns and labels:
[1] = system: Phakopsora pachyrhizi (F129L); test: Protective control of soybean rust on soybeans (PHAKPA P6); type: in vivo; conditions: for % PHAKPA (F129L) Disease level P6 at 4 ppm: protective P6, 4 ppm; for % PHAKPA (F129L) Disease level P6 at 16 ppm: protective P6, 16 ppm
[2] = system: Phakopsora pachyrhizi (F129L); test: Protective control of soybean rust on soybeans (PHAKPA P2); type: in vivo; conditions: for % PHAKPA (F129L) Disease level P2 at 4 ppm: protective P2, 4 ppm; for % PHAKPA (F129L) Disease level P2 at 16 ppm: protective P2, 16 ppm

Row | SMILES | % PHAKPA (F129L) Disease level P6 at 4 ppm ([1]; soybean rust F129L isolate) [%] | % PHAKPA (F129L) Disease level P6 at 16 ppm ([1]; soybean rust F129L isolate) [%] | % PHAKPA (F129L) Disease level P2 at 4 ppm ([2]; soybean rust F129L isolate) [%] | % PHAKPA (F129L) Disease level P2 at 16 ppm ([2]; soybean rust F129L isolate) [%] | % PHAKPA (F129L) Disease level P6 at 4 ppm ([1]; F129L isolate) [%] | % PHAKPA (F129L) Disease level P6 at 16 ppm ([1]; F129L isolate) [%] | % PHAKPA (F129L) Disease level P2 at 4 ppm ([2]; F129L isolate) [%] | % PHAKPA (F129L) Disease level P2 at 16 ppm ([2]; F129L isolate) [%]
1 | CNC(=O)/C(=N/OC)c1cccc(C)c1CO/N=C(\C)c1cccc(OC/C(C)=N/OC)c1 [compound 226] | 57 | 7 | 28 | 3 | – | – | – | –
2 | CNC(=O)/C(=N/OC)c1cccc(C)c1CO/N=C(\C)c1ccccc1C1CC1 [compound 219] | 87 | 43 | 60 | 8 | – | – | – | –
3 | CNC(=O)/C(=N/OC)c1cccc(C)c1CO/N=C(\C)c1ccccc1OC1CC1 [compound 329] | 100 | 73 | 100 | 53 | – | – | – | –
4 | CNC(=O)/C(=N/OC)c1cccc(C)c1CO/N=C(\C)c1ccc(Cc2ccccc2)cc1OC(F)(F)F [compound 419] | – | – | – | – | 60 | 12 | 40 | 18
5 | CNC(=O)/C(=N/OC)c1cccc(C)c1CO/N=C(\C)c1ccc(Cl)c(F)c1OC(F)(F)F [compound 449] | – | – | – | – | 57 | 9 | 33 | 10
6 | CNC(=O)/C(=N/OC)c1cccc(C)c1CO/N=C(\C)c1ccccc1C(F)F [compound 298] | 97 | 37 | 63 | 7 | – | – | – | –
7 | CNC(=O)/C(=N/OC)c1cccc(C)c1CO/N=C(\C)c1ccccc1C(C)C [compound 220] | 100 | 77 | 90 | 30 | – | – | – | –
8 | CO/C=C(/C(=O)OC)c1cccc(C)c1CO/N=C(\C)c1ccc(OC(F)(F)F)cc1Cl [compound 463] | – | – | – | – | 3 | 0 | 6 | 0
9 | CO/N=C(/C(=O)OC)c1cccc(C)c1CO/N=C(\C)c1ccccc1OC(F)F [compound 253] | 100 | 57 | 100 | 87 | – | – | – | –
10 | CO/C=C(/C(=O)OC)c1cccc(C)c1CO/N=C(\C)c1ccc(-c2ccccc2)cc1OC(F)(F)F [compound 433] | – | – | – | – | 80 | 57 | 83 | 67
11 | CNC(=O)/C(=N/OC)c1cccc(C)c1CO/N=C(\C)c1cc(F)c(F)cc1CC(F)(F)F [compound 406] | – | – | – | – | 67 | 23 | 97 | 30
12 | C#Cc1cc(F)c(F)c(/C(C)=N/OCc2c(C)cccc2/C(=N\OC)C(=O)NC)c1 [compound 243] | 37 | 1 | 4 | 0 | – | – | – | –
13 | CNC(=O)/C(=N/OC)c1cccc(C)c1CO/N=C(\C)c1ccc(F)c(F)c1OC(F)(F)F [compound 451] | – | – | – | – | 2 | 0 | 1 | 0
14 | CNC(=O)/C(=N/OC)c1cccc(C)c1CO/N=C(\C)c1ccc(OC(F)(F)F)cc1C [compound 261] | 87 | 32 | 70 | 9 | – | – | – | –
15 | CO/C=C(/C(=O)OC)c1cccc(C)c1CO/N=C(\C)c1ccc(C)cc1C(F)(F)F [compound 446] | – | – | – | – | 6 | 0 | 2 | 0
16 | CNC(=O)/C(=N/OC)c1cccc(C)c1CO/N=C(\C)c1c(F)cc(Br)cc1C(F)(F)F [compound 358] | 83 | 18 | 77 | 17 | – | – | – | –
17 | CNC(=O)/C(=N/OC)c1cccc(C)c1CO/N=C(\CC(C)C)c1cccc(C(F)(F)F)c1 [compound 235] | 87 | 77 | 100 | 73 | – | – | – | –
18 | CNC(=O)/C(=N/OC)c1cccc(C)c1CO/N=C(\C)c1ccc(F)cc1Cl [compound 262] | 47 | 4 | 63 | 1 | – | – | – | –

Row | SMILES | % PHAKPA (F129L) Disease level P6 at 4 ppm ([1]; soybean rust F129L isolate) [%] | % PHAKPA (F129L) Disease level P6 at 16 ppm ([1]; soybean rust F129L isolate) [%] | % PHAKPA (F129L) Disease level P2 at 4 ppm ([2]; soybean rust F129L isolate) [%] | % PHAKPA (F129L) Disease level P2 at 16 ppm ([2]; soybean rust F129L isolate) [%] | % PHAKPA (F129L) Disease level P6 at 4 ppm ([1]; F129L isolate) [%] | % PHAKPA (F129L) Disease level P6 at 16 ppm ([1]; F129L isolate) [%] | % PHAKPA (F129L) Disease level P2 at 4 ppm ([2]; F129L isolate) [%] | % PHAKPA (F129L) Disease level P2 at 16 ppm ([2]; F129L isolate) [%]
19 | CO/N=C(/C(=O)OC)c1cccc(C)c1CO/N=C(\C)c1ccc(F)cc1C(F)(F)F [compound 263] | 73 | 22 | 80 | 15 | – | – | – | –
20 | CNC(=O)/C(=N/OC)c1cccc(C)c1CO/N=C(\CC1CC1)c1cccc(C(F)(F)F)c1 [compound 234] | 53 | 15 | 53 | 18 | – | – | – | –
21 | CNC(=O)/C(=N/OC)c1cccc(C)c1CO/N=C(\C)c1ccc(OC(F)(F)F)cc1F [compound 270] | 0 | 1 | 3 | 0 | – | – | – | –
22 | CO/N=C(/C(=O)OC)c1cccc(C)c1CO/N=C(\C)c1cc(Cl)c(F)c(Cl)c1 [compound 246] | 77 | 7 | 40 | 15 | – | – | – | –
23 | CNC(=O)/C(=N/OC)c1cccc(C)c1CO/N=C(\C)c1ccc(Cl)cc1OC(F)(F)F [compound 375] | 40 | 6 | 47 | 8 | – | – | – | –
24 | CO/N=C(/C(=O)OC)c1cccc(C)c1CO/N=C(\C)c1ccc(C)c(C(F)(F)F)c1 [compound 229] | 77 | 6 | 27 | 2 | – | – | – | –
25 | CO/N=C(/C(=O)OC)c1cccc(C)c1CO/N=C(\C)c1ccc(F)cc1F [compound 266] | 90 | 43 | 67 | 18 | – | – | – | –
26 | CO/C=C(/C(=O)OC)c1cccc(C)c1CO/N=C(\C)c1ccc(-c2ccc(F)cc2)cc1C(F)(F)F [compound 432] | – | – | – | – | 13 | 3 | 12 | 0
27 | CNC(=O)/C(=N/OC)c1cccc(C)c1CO/N=C(\C)c1cc(Cl)ccc1C(F)(F)F [compound 245] | 13 | 2 | 28 | 8 | – | – | – | –
28 | CNC(=O)/C(=N/OC)c1cccc(C)c1CO/N=C(\C)c1cc(C)ccc1C [compound 278] | 90 | 93 | 90 | 60 | – | – | – | –
29 | CNC(=O)/C(=N/OC)c1cccc(C)c1CO/N=C(\C)c1cccc(C(C)(F)F)c1 [compound 303] | 12 | 0 | 2 | 0 | – | – | – | –
30 | CNC(=O)/C(=N/OC)c1cccc(C)c1CO/N=C(\C)c1ccc(Cl)c(F)c1CC(F)(F)F [compound 412] | – | – | – | – | 40 | 6 | 47 | 6
31 | CNC(=O)/C(=N/OC)c1cccc(C)c1CO/N=C(\C)c1ccccc1OC(F)F [compound 252] | 87 | 32 | 50 | 3 | – | – | – | –
32 | CNC(=O)/C(=N/OC)c1cccc(C)c1CO/N=C(\C)c1ccc(-c2ccccc2)cc1OC(F)(F)F [compound 435] | – | – | – | – | 87 | 60 | 93 | 57
33 | CNC(=O)/C(=N/OC)c1cccc(C)c1CO/N=C(\C)c1ccc(C)cc1C(F)(F)F [compound 327] | 48 | 4 | 23 | 3 | – | – | – | –
34 | CO/N=C(/C(=O)OC)c1cccc(C)c1CO/N=C(\C)c1ccccc1OC(F)(F)F [compound 236] | 97 | 100 | 97 | 77 | – | – | – | –
35 | CNC(=O)/C(=N/OC)c1cccc(C)c1CO/N=C(\C)c1ccc(OC(F)(F)F)cc1C(F)(F)F [compound 363] | 25 | 2 | 29 | 1 | – | – | – | –
